Experimental data: patent publication US20110033516A1, “METHODS AND COMPOSITIONS FOR BONE HEALING BY PERIOSTIN” (Medical University of South Carolina, priority 2009, published 2011)
“Also recorded” adds a separate entry of the source.

B1: periostin: Full length recombinant mouse periostin (a.k.a. OSF-2) purchased from R&D systems; secreted 90 kDa matricellular protein (protein, UniProt Q62009 1-838, looked up)
chain: MVPLLPLYALLLLFLCDINPANANSYYDKVLAHSRIRGRDQGPNVCALQQILGTKKKYFSSCKNWYQGAICGKKTTVLYECCPGYMRMEGMKGCPAVMPIDHVYGTLGIVGATTTQHYSDVSKLREEIEGKGSYTYFAPSNEAWENLDSDIRRGLENNVNVELLNALHSHMVNKRMLTKDLKHGMVIPSMYNNLGLFINHYPNGVVTVNCARVIHGNQIATNGVVHVIDRVLTQIGTSIQDFLEAEDDLSSFRAAAITSDLLESLGRDGHFTLFAPTNEAFEKLPRGVLERIMGDKVASEALMKYHILNTLQCSEAITGGAVFETMEGNTIEIGCEGDSISINGIKMVNKKDIVTKNGVIHLIDEVLIPDSAKQVIELAGKQQTTFTDLVAQLGLASSLKPDGEYTLLAPVNNAFSDDTLSMDQRLLKLILQNHILKVKVGLSDLYNGQILETIGGKQLRVFVYRTAICIENSCMVRGSKQGRNGAIHIFREIIQPAEKSLHDKLRQDKRFSIFLSLLEAADLKDLLTQPGDWTLFAPTNDAFKGMTSEERELLIGDKNALQNIILYHLTPGVYIGKGFEPGVTNILKTTQGSKIYLKGVNETLLVNELKSKESDIMTTNGVIHVVDKLLYPADIPVGNDQLLELLNKLIKYIQIKFVRGSTFKEIPMTVYTTKIITKVVEPKIKVIQGSLQPIIKTEGPAMTKIQIEGDPDFRLIKEGETVTEVIHGEPVIKKYTKIIDGVPVEITEKQTREERIITGPEIKYTRISTGGGETGETLQKFLQKEVSKVTKFIEGGDGHLFEDEEIKRLLQGDTPAKKIPANKRVQGPRRRSREGRSQ
modifications: full-length
notes: Full length recombinant mouse periostin (a.k.a. OSF-2) purchased from R&D systems; secreted 90 kDa matricellular protein
B2: TGFβ3: exogenous factor (transforming growth factor) tested in the 3D collagen gel migration assay (protein, UniProt P10600 301-412, looked up)
Transforming growth factor …: ALDTNYCFRNLEENCCVRPLYIDFRQDLGWKWVHEPKGYYANFCSGPCPYLRSADTTHSTVLGLYNTLNPEASASPCCVPQDLEPLTILYYVGRTPKVEQLSNMVVKSCKCS

How the values were obtained:
[1] = test system: ROS cell line; experiment: Cell adhesion assay, ROS cell line; assay type: cell-based, rat; details: assayed in triplicate, 1% BSA negative control
Procedure: FIGS. 16A-B Cell adhesion assays. (A) Each of the 55 peptides (20 mers) of periostin was assayed in triplicate by a cell adhesion assay using the ROS cell line. Collagen I and poly-L-lysine were used as positive controls, whereas 1% BSA coated wells were negative controls for non-specific binding. […] These subtle differences may be attributed to different integrin profiles of the two cell types.
The 55 peptides in Table 1 have been studied in a cell adhesion assay using the ROS cell line.
These assays will be performed as described. Briefly, titrated amounts of purified matrix protein (or peptides or fragments) ranging from 10 ng/ml to 100 μg/ml will be used to coat the wells of a 96-well dish. Poly-L-lysine (1.5 μg/ml) and 1% BSA will be used as positive and negative controls for adhesion, respectively. The wells are blocked with 1% BSA to coat any of the charged plastic surface not coated by the substrates. Finally the cells are allowed to adhere to the substrates at 37° C. for 1-2 hours depending on cell type. The cells are then gently washed to remove those that are not adherent and retain those that are adherent. Then the cells remaining are exposed to 4% PFA to fix them and they are subsequently stained with 0.25% crystal violet for 30 min. Plates are washed and air-dried. At this point the cells can be visualized and images digitally captured. The amount of stain on the cells is solubilized by 2% sodium deoxycholate for 10 min. and absorbance is measured at 540 nm wavelength. This gives quantitative data directly related to the number of adherent cells. Another assessment can be done by digitally capturing the cells in each well and analyzing their spreading by morphometric analysis.

[2] = test system: rat osteoblast cells; experiment: Standard wounding / scratch migration assay; assay type: cell-based; details: dishes coated with plastic, collagen, or collagen plus titrating amounts of periostin; BMP-2 titrated; up to 48 hours
Procedure: Tissue culture dishes were coated with either collagen, or collagen with titrating amounts of periostin. Cells were plated and allowed to adhere for 24 hours. A standard “wounding” or “scratch assay” was performed and measurements of cell migration into the scratch area were obtained.
The ability of periostin to promote migration of osteoblast cells in culture was ascertained utilizing a standard “wounding” assay. For this, a monolayer of rat osteoblast cells was plated on either plastic, collagen or collagen plus titrating amounts of periostin. A small scratch was made (with a P200 tip) through the middle of the monolayer and the cells were allowed to migrate into the “wounded” area for up to 48 hours.

[3] = test system: fibroblasts; experiment: Collagen deposition by fibroblasts after periostin exposure; assay type: cell-based; details: following periostin exposure/incubation
[4] = test system: fibula osteotomy in the periostin null mouse; experiment: Fibula osteotomy model of bone fracture healing, X-ray analysis; assay type: in vivo; details: three weeks after fibula osteotomy, hydrogel delivery at the break point
Procedure: FIGS. 8A-C Periostin KO mice have defects in bone regeneration. X-ray analyses of bone healing three weeks after fibula osteotomies. […] (B,C) Fibula osteotomies were performed in the periostin null background and analyzed by X-ray three weeks later. In the absence of periostin there is no apparent callus formed and no fibula fusion (C).
To examine the role of periostin as a mediator of bone healing following injury, a novel in vivo murine fibula osteotomy model was developed (FIGS. 6A-B). The generation of this model system in the mouse has significant advantages over the more standard tibia and femur bone break models. Currently, the main disadvantage of the tibia and femur models is their necessity for an intermedullary stabilizer (i.e., metal rods) due to these bones being weight bearing. These rods make various analyses such microCT, MTS and histological examination either exceedingly difficult or totally impossible. Because the fibula is a non-weight bearing bone, intermedullary stabilization is not required. As such, analyses such as microCT, MTS and histology are more easily and reproducibly performed in the fibula osteotomy model. […]

[5] = test system: Mesenchyme from periostin null mice; experiment: Hanging drop culture of periostin null mesenchyme, collagen expression by immunoblotting; assay type: cell-based, mouse; details: purified periostin protein 10 μg/ml in culture medium, 7 days
Procedure: FIGS. 3A-B Periostin regulates collagen synthesis. Mesenchyme from periostin null mice was placed in hanging drop cultures and incubated with either purified periostin protein (10 μg/ml) or PBS. Mesenchyme from wild-type mice was used as control tissue. After 7 days, tissues were harvested and analyzed for periostin and collagen expression by immunoblotting. […] Actin is used for protein normalization. (B) Graphical representation of Western analyses presented in panel A obtained from densitometric analyses using NIH image software. Values obtained were compared against wild-type values (baseline) and represented as relative percent change. * denotes p<0.05.
Studies were carried out to examine the affect of periostin on fibroblast differentiation. Through these studies, it was ascertained that periostin was a crucial regulator of collagen I synthesis and maturation (fibrillogenesis) and promoted fibroblast differentiation (FIGS. 3A-B). […] Within the bone, expression of these matrix components was seen primarily in the periosteal cells. To ascertain the functional significance of periostin on bone growth, gene targeted mice were generated. These mice are viable and able to reproduce. However, significant defects have been observed in the material properties of various connective tissues. […]

[6] = test system: primary fibroblasts; experiment: 3D collagen gel migration assay with hanging drop aggregates; assay type: cell-based; details: aggregates of 50,000 cells/20 μl on collagen I hydrogels (1.5 mg/ml), exogenous factors
Source text: FIG. 11 Periostin promotes migration of primary fibroblasts in 3D collagen gel assays. […] Pictures above the graph lines show representative images of the stimulated cultures with the cell migratory boundaries outlined.
The 3-D migration and invasion assay will use the same cells but aggregate them using a hanging drop method overnight. […] The number of cells that have migrated out from the aggregate and the distance migrated on the top of the gel are the first order parameters of migration.

Row | Molecule | cell adhesion (binding) to peptide [1] | further results
1 | DQRLLKLILQNHILKVKVGL (listed as Mus musculus) [Peptide 28, murine periostin peptide] | significant binding | 
2 | HGMVIPSMYNNLGLFINHYP (listed as Mus musculus) [Peptide 12, murine periostin peptide] | significant binding | 
3 | HSHMVNKRMLTKDLKHGMVI (listed as Mus musculus) [Peptide 11, murine periostin peptide] | significant binding | 
4 | HSRIRGRDQGPNVCALQQIL (listed as Mus musculus) [Peptide 2, murine periostin peptide] | significant binding | 
5 | IGCEGDSISINGIKMVNKKD (listed as Mus musculus) [Peptide 22, murine periostin peptide] | significant binding | 
6 | RGLENNVNVELLNALHSHMV (listed as Mus musculus) [Peptide 10, murine periostin peptide] | significant binding | 
7 | TIGGKQLRVFVYRTAICIEN (listed as Mus musculus) [Peptide 30, murine periostin peptide] | significant binding | 
8 | B1 |  | cell migration into the scratch area [2]: highest degree of migration; also recorded: most potent stimulation of migration; collagen deposition by fibroblasts [3]: increased in a dose-dependent manner; bone healing (callus formation, fibula fusion) by X-ray [4]: “rescued” the null phenotype; also recorded: pronounced healing is evident; expression of collagen Ia1 and Ia2 [5]: induces expression of collagen Ia1 and Ia2; fold-change in area of migration [6]: highest degree of migration
9 | B2 |  | fold-change in area of migration [6]: promoted migration
